# In paper PMC7163368 (British Journal of Clinical Pharmacology, 2020):
# “Also recorded” adds a separate entry of the source.
# Assays:
# [1] = 28‐day toxicity study in rats; cited from earlier work
# [2] = Safety and tolerability: adverse events, laboratory, ECG, physical examination; type: in vivo, human
# [3] = s.c. single dose 120 mg (n = 5)
smiles,measurement,setting,value
O=C(CN[C@@H]1CCNC1)N1CCC[C@H]1B(O)O [dutogliptin],No observed adverse effects level,[1],30 mg/kg
same,AEs with intravenous bolus injection,[2]; 30 mg i.v.,not associated with any AEs
same,Dose dependence of related systemic AEs,[2]; P > .999,No dose‐dependent increase
same,Dose dependence of subjects experiencing at least 1 local AE,[2]; P > .999,no dose‐dependent increase
same,"Erythema, related: subjects with at least 1 AE",[2]; Total (n = 40),34 (85%)
same,"Fatigue, related: subjects with at least 1 AE",[2]; Total (n = 40),2 (5%)
same,"Headache, related: subjects with at least 1 AE",[2]; Total (n = 40),2 (5%)
same,"Hematoma, related: subjects with at least 1 AE",[2]; Total (n = 40),4 (10%)
same,"Local AEs, related: subjects with at least 1 AE",[2]; Total (n = 40),34 (85%)
same,"Other local AEs, related: subjects with at least 1 AE",[2]; Total (n = 40),1 (3%)
same,"Other systemic AEs, related: subjects with at least 1 AE",[2]; Total (n = 40),2 (5%)
same,"Pain with touching, related: subjects with at least 1 AE",[2]; Total (n = 40),8 (20%)
same,"Pain without touching, related: subjects with at least 1 AE",[2]; Total (n = 40),3 (8%)
same,"Swelling, related: subjects with at least 1 AE",[2]; Total (n = 40),2 (5%)
same,"Systemic AEs, related: subjects with at least 1 AE",[2]; Total (n = 40),6 (15%)
same,"Nonrelated serious AE (head injury, hospitalization)",[2]; all cohorts,1
same,Nonrelated severe AEs,[2]; all cohorts,Two nonrelated severe AEs
same,"Related systemic AEs, total",[2]; all cohorts,6
same,Related serious (or severe) adverse events,"[2]; all cohorts, 40 healthy males",No related serious adverse events occurred; also recorded: No study drug‐related severe or serious AEs were observed
same,"All AEs, related: subjects with at least 1 AE",[2]; i.v. single dose 30 mg (n = 5),0
same,"Erythema, related: subjects with at least 1 AE",[2]; i.v. single dose 30 mg (n = 5),0
same,"Fatigue, related: subjects with at least 1 AE",[2]; i.v. single dose 30 mg (n = 5),0
same,"Headache, related: subjects with at least 1 AE",[2]; i.v. single dose 30 mg (n = 5),0
same,"Hematoma, related: subjects with at least 1 AE",[2]; i.v. single dose 30 mg (n = 5),0
same,"Induration, related: subjects with at least 1 AE",[2]; i.v. single dose 30 mg (n = 5),0
same,"Local AEs, related: subjects with at least 1 AE",[2]; i.v. single dose 30 mg (n = 5),0
same,"Other local AEs (burning sensation at the injection site), related: subjects with at least 1 AE",[2]; i.v. single dose 30 mg (n = 5),0
same,"Other systemic AEs (dizziness and nausea), related: subjects with at least 1 AE",[2]; i.v. single dose 30 mg (n = 5),0
same,"Pain with touching, related: subjects with at least 1 AE",[2]; i.v. single dose 30 mg (n = 5),0
same,"Pain without touching, related: subjects with at least 1 AE",[2]; i.v. single dose 30 mg (n = 5),0
same,"Swelling, related: subjects with at least 1 AE",[2]; i.v. single dose 30 mg (n = 5),0
same,"Systemic AEs, related: subjects with at least 1 AE",[2]; i.v. single dose 30 mg (n = 5),0
same,"All AEs, related: subjects with at least 1 AE",[2]; s.c. multidose 60 mg (n = 5),5 (100%)
same,"Erythema, related: subjects with at least 1 AE",[2]; s.c. multidose 60 mg (n = 5),5 (100%)
same,"Fatigue, related: subjects with at least 1 AE",[2]; s.c. multidose 60 mg (n = 5),1 (20%)
same,"Headache, related: subjects with at least 1 AE",[2]; s.c. multidose 60 mg (n = 5),0
same,"Hematoma, related: subjects with at least 1 AE",[2]; s.c. multidose 60 mg (n = 5),1 (20%)
same,"Induration, related: subjects with at least 1 AE",[2]; s.c. multidose 60 mg (n = 5),4 (80%)
same,"Local AEs, related: subjects with at least 1 AE",[2]; s.c. multidose 60 mg (n = 5),5 (100%)
same,"Other local AEs, related: subjects with at least 1 AE",[2]; s.c. multidose 60 mg (n = 5),0
same,"Other systemic AEs, related: subjects with at least 1 AE",[2]; s.c. multidose 60 mg (n = 5),0
same,"Pain with touching, related: subjects with at least 1 AE",[2]; s.c. multidose 60 mg (n = 5),3 (60%)
same,"Pain without touching, related: subjects with at least 1 AE",[2]; s.c. multidose 60 mg (n = 5),0
same,"Swelling, related: subjects with at least 1 AE",[2]; s.c. multidose 60 mg (n = 5),0
same,"Systemic AEs, related: subjects with at least 1 AE",[2]; s.c. multidose 60 mg (n = 5),1 (20%)
same,"All AEs, related: subjects with at least 1 AE",[2]; s.c. multidose 90 mg (n = 5),5 (100%)
same,"Erythema, related: subjects with at least 1 AE",[2]; s.c. multidose 90 mg (n = 5),5 (100%)
same,"Fatigue, related: subjects with at least 1 AE",[2]; s.c. multidose 90 mg (n = 5),1 (20%)
same,"Headache, related: subjects with at least 1 AE",[2]; s.c. multidose 90 mg (n = 5),1 (20%)
same,"Hematoma, related: subjects with at least 1 AE",[2]; s.c. multidose 90 mg (n = 5),1 (20%)
same,"Induration, related: subjects with at least 1 AE",[2]; s.c. multidose 90 mg (n = 5),4 (80%)
same,"Local AEs, related: subjects with at least 1 AE",[2]; s.c. multidose 90 mg (n = 5),5 (100%)
same,"Other local AEs, related: subjects with at least 1 AE",[2]; s.c. multidose 90 mg (n = 5),0
same,"Other systemic AEs (dizziness and nausea), related: subjects with at least 1 AE",[2]; s.c. multidose 90 mg (n = 5),2 (40%)
same,"Pain with touching, related: subjects with at least 1 AE",[2]; s.c. multidose 90 mg (n = 5),2 (40%)
same,"Pain without touching, related: subjects with at least 1 AE",[2]; s.c. multidose 90 mg (n = 5),1 (20%)
same,"Swelling, related: subjects with at least 1 AE",[2]; s.c. multidose 90 mg (n = 5),1 (20%)
same,"Systemic AEs, related: subjects with at least 1 AE",[2]; s.c. multidose 90 mg (n = 5),4 (80%)
same,"All AEs, related: subjects with at least 1 AE",[2]; s.c. multidose 120 mg (n = 5),5 (100%)
same,"Erythema, related: subjects with at least 1 AE",[2]; s.c. multidose 120 mg (n = 5),5 (100%)
same,"Fatigue, related: subjects with at least 1 AE",[2]; s.c. multidose 120 mg (n = 5),0
same,"Headache, related: subjects with at least 1 AE",[2]; s.c. multidose 120 mg (n = 5),0
same,"Hematoma, related: subjects with at least 1 AE",[2]; s.c. multidose 120 mg (n = 5),0
same,"Induration, related: subjects with at least 1 AE",[2]; s.c. multidose 120 mg (n = 5),3 (60%)
same,"Local AEs, related: subjects with at least 1 AE",[2]; s.c. multidose 120 mg (n = 5),5 (100%)
same,"Other local AEs, related: subjects with at least 1 AE",[2]; s.c. multidose 120 mg (n = 5),0
same,"Other systemic AEs, related: subjects with at least 1 AE",[2]; s.c. multidose 120 mg (n = 5),0
same,"Pain with touching, related: subjects with at least 1 AE",[2]; s.c. multidose 120 mg (n = 5),2 (40%)
same,"Pain without touching, related: subjects with at least 1 AE",[2]; s.c. multidose 120 mg (n = 5),2 (40%)
same,"Swelling, related: subjects with at least 1 AE",[2]; s.c. multidose 120 mg (n = 5),0
same,"Systemic AEs, related: subjects with at least 1 AE",[2]; s.c. multidose 120 mg (n = 5),0
same,"All AEs, related: subjects with at least 1 AE",[2]; s.c. single dose 30 mg (n = 5),5 (100%)
same,"Erythema, related: subjects with at least 1 AE",[2]; s.c. single dose 30 mg (n = 5),5 (100%)
same,"Fatigue, related: subjects with at least 1 AE",[2]; s.c. single dose 30 mg (n = 5),0
same,"Headache, related: subjects with at least 1 AE",[2]; s.c. single dose 30 mg (n = 5),0
same,"Hematoma, related: subjects with at least 1 AE",[2]; s.c. single dose 30 mg (n = 5),0
same,"Induration, related: subjects with at least 1 AE",[2]; s.c. single dose 30 mg (n = 5),0
same,"Local AEs, related: subjects with at least 1 AE",[2]; s.c. single dose 30 mg (n = 5),5 (100%)
same,"Other local AEs, related: subjects with at least 1 AE",[2]; s.c. single dose 30 mg (n = 5),0
same,"Other systemic AEs, related: subjects with at least 1 AE",[2]; s.c. single dose 30 mg (n = 5),0
same,"Pain with touching, related: subjects with at least 1 AE",[2]; s.c. single dose 30 mg (n = 5),1 (20%)
same,"Pain without touching, related: subjects with at least 1 AE",[2]; s.c. single dose 30 mg (n = 5),0
same,"Swelling, related: subjects with at least 1 AE",[2]; s.c. single dose 30 mg (n = 5),0
same,"Systemic AEs, related: subjects with at least 1 AE",[2]; s.c. single dose 30 mg (n = 5),0
same,"All AEs, related: subjects with at least 1 AE",[2]; s.c. single dose 60 mg (n = 5),5 (100%)
same,"Erythema, related: subjects with at least 1 AE",[2]; s.c. single dose 60 mg (n = 5),5 (100%)
same,"Fatigue, related: subjects with at least 1 AE",[2]; s.c. single dose 60 mg (n = 5),0
same,"Headache, related: subjects with at least 1 AE",[2]; s.c. single dose 60 mg (n = 5),0
same,"Hematoma, related: subjects with at least 1 AE",[2]; s.c. single dose 60 mg (n = 5),0
same,"Induration, related: subjects with at least 1 AE",[2]; s.c. single dose 60 mg (n = 5),1 (20%)
same,"Local AEs, related: subjects with at least 1 AE",[2]; s.c. single dose 60 mg (n = 5),5 (100%)
same,"Other local AEs, related: subjects with at least 1 AE",[2]; s.c. single dose 60 mg (n = 5),0
same,"Other systemic AEs, related: subjects with at least 1 AE",[2]; s.c. single dose 60 mg (n = 5),0
same,"Pain with touching, related: subjects with at least 1 AE",[2]; s.c. single dose 60 mg (n = 5),0
same,"Pain without touching, related: subjects with at least 1 AE",[2]; s.c. single dose 60 mg (n = 5),0
same,"Swelling, related: subjects with at least 1 AE",[2]; s.c. single dose 60 mg (n = 5),0
same,"Systemic AEs, related: subjects with at least 1 AE",[2]; s.c. single dose 60 mg (n = 5),0
same,"All AEs, related: subjects with at least 1 AE",[2]; s.c. single dose 90 mg (n = 5),5 (100%)
same,"Erythema, related: subjects with at least 1 AE",[2]; s.c. single dose 90 mg (n = 5),5 (100%)
same,"Fatigue, related: subjects with at least 1 AE",[2]; s.c. single dose 90 mg (n = 5),0
same,"Headache, related: subjects with at least 1 AE",[2]; s.c. single dose 90 mg (n = 5),0
same,"Hematoma, related: subjects with at least 1 AE",[2]; s.c. single dose 90 mg (n = 5),1 (20%)
same,"Induration, related: subjects with at least 1 AE",[2]; s.c. single dose 90 mg (n = 5),0
same,"Local AEs, related: subjects with at least 1 AE",[2]; s.c. single dose 90 mg (n = 5),5 (100%)
same,"Other local AEs, related: subjects with at least 1 AE",[2]; s.c. single dose 90 mg (n = 5),0
same,"Other systemic AEs, related: subjects with at least 1 AE",[2]; s.c. single dose 90 mg (n = 5),0
same,"Pain with touching, related: subjects with at least 1 AE",[2]; s.c. single dose 90 mg (n = 5),0
same,"Pain without touching, related: subjects with at least 1 AE",[2]; s.c. single dose 90 mg (n = 5),0
same,"Swelling, related: subjects with at least 1 AE",[2]; s.c. single dose 90 mg (n = 5),1 (20%)
same,"Systemic AEs, related: subjects with at least 1 AE",[2]; s.c. single dose 90 mg (n = 5),0
same,"All AEs, related: subjects with at least 1 AE",[2]; [3],5 (100%)
same,"Erythema, related: subjects with at least 1 AE",[2]; [3],4 (80%)
same,"Fatigue, related: subjects with at least 1 AE",[2]; [3],0
same,"Headache, related: subjects with at least 1 AE",[2]; [3],1 (20%)
same,"Hematoma, related: subjects with at least 1 AE",[2]; [3],1 (20%)
same,"Induration, related: subjects with at least 1 AE",[2]; [3],2 (40%)
same,"Local AEs, related: subjects with at least 1 AE",[2]; [3],4 (80%)
same,"Other local AEs (burning sensation at the injection site), related: subjects with at least 1 AE",[2]; [3],1 (20%)
same,"Other systemic AEs, related: subjects with at least 1 AE",[2]; [3],0
same,"Pain with touching, related: subjects with at least 1 AE",[2]; [3],0
same,"Pain without touching, related: subjects with at least 1 AE",[2]; [3],0
same,"Swelling, related: subjects with at least 1 AE",[2]; [3],0
same,"Systemic AEs, related: subjects with at least 1 AE",[2]; [3],1 (20%)
